According to the kinase profiling compilation of Christmann-Franck et al. (2016):
Each block holds one compound with its values, some of them ahead of it.

Columns and labels:
[1] = biological target: LRRK2 (human) (UniProt Q5S007); assay: HTRF; conditions: ATP 100 µM
[2] = biological target: LRRK2 (human), Q5S007 [G2019S]; assay: HTRF; conditions: ATP 100 µM
[3] = biological target: ABL1 (human) (UniProt P00519); assay: SelectScreen, TR FRET; conditions: compound 10.0 µM
[4] = biological target: AKT1 (human) (UniProt P31749); assay: SelectScreen, TR FRET
[5] = biological target: AURKA (human) (UniProt O14965); assay: SelectScreen, TR FRET; conditions: compound 10.0 µM
[6] = biological target: CAMK2A (human) (UniProt Q9UQM7); assay: SelectScreen, TR FRET
[7] = biological target: CDK1 CCNB1 (human) (UniProt P06493+P14635); assay: SelectScreen, TR FRET; conditions: compound 10.0 µM
[8] = biological target: CDK2 CCNA2 (human) (UniProt P24941+P20248); assay: SelectScreen, TR FRET
[9] = biological target: CDK5 CDK5R1 p25 (human) (UniProt Q15078+Q00535); assay: SelectScreen, TR FRET
[10] = biological target: CHEK1 (human) (UniProt O14757); assay: SelectScreen, TR FRET; conditions: compound 10.0 µM
[11] = biological target: CLK1 (human) (UniProt P49759); assay: SelectScreen, TR FRET; conditions: compound 10.0 µM
[12] = biological target: CSF1R (human) (UniProt P07333); assay: SelectScreen, TR FRET; conditions: compound 10.0 µM
[13] = biological target: DYRK1B (human) (UniProt Q9Y463); assay: SelectScreen, TR FRET; conditions: compound 10.0 µM
[14] = biological target: ERBB4 (human) (UniProt Q15303); assay: SelectScreen, TR FRET
[15] = biological target: FLT3 (human) (UniProt P36888); assay: SelectScreen, TR FRET
[16] = biological target: GSK3B (human) (UniProt P49841); assay: SelectScreen, TR FRET
[17] = biological target: INSR (human) (UniProt P06213); assay: SelectScreen, TR FRET
[18] = biological target: IRAK4 (human) (UniProt Q9NWZ3); assay: SelectScreen, TR FRET
[19] = biological target: JAK1 JH1 JH2 (human) (UniProt P23458); assay: SelectScreen, TR FRET
[20] = biological target: LCK (human) (UniProt P06239); assay: SelectScreen, TR FRET
[21] = biological target: LRRK2 (human) (UniProt Q5S007); assay: SelectScreen, TR FRET; conditions: compound 10.0 µM
[22] = biological target: MAP3K7 TAB1 (human) (UniProt Q15750+O43318); assay: SelectScreen, TR FRET
[23] = biological target: MAPK1 (human) (UniProt P28482); assay: SelectScreen, TR FRET
[24] = biological target: MAPK10 (human) (UniProt P53779); assay: SelectScreen, TR FRET
[25] = biological target: MARK2 (human) (UniProt Q7KZI7); assay: SelectScreen, TR FRET; conditions: compound 10.0 µM
[26] = biological target: PAK4 (human) (UniProt O96013); assay: SelectScreen, TR FRET; conditions: compound 10.0 µM
[27] = biological target: PDGFRA (human) (UniProt P16234); assay: SelectScreen, TR FRET
[28] = biological target: PIK3CA PIK3R1 (human) (UniProt P27986+P42336); assay: SelectScreen, TR FRET
[29] = biological target: PLK1 (human) (UniProt P53350); assay: SelectScreen, TR FRET
[30] = biological target: PLK2 (human) (UniProt Q9NYY3); assay: SelectScreen, TR FRET; conditions: compound 10.0 µM
[31] = biological target: PLK3 (human) (UniProt Q9H4B4); assay: SelectScreen, TR FRET
[32] = biological target: PRKACA (human) (UniProt P17612); assay: SelectScreen, TR FRET; conditions: compound 10.0 µM
[33] = biological target: PRKCB1 (human) (UniProt P05771); assay: SelectScreen, TR FRET
[34] = biological target: PTK2B (human) (UniProt Q14289); assay: SelectScreen, TR FRET
[35] = biological target: RAF1 (human) (UniProt P04049); assay: SelectScreen, TR FRET
[36] = biological target: RET (human) (UniProt P07949); assay: SelectScreen, TR FRET; conditions: compound 10.0 µM
[37] = biological target: RIPK2 (human) (UniProt O43353); assay: SelectScreen, TR FRET; conditions: compound 10.0 µM
[38] = biological target: ROCK2 (human) (UniProt O75116); assay: SelectScreen, TR FRET
[39] = biological target: STK16 (human) (UniProt O75716); assay: SelectScreen, TR FRET
[40] = biological target: STK3 (human) (UniProt Q13188); assay: SelectScreen, TR FRET
[41] = biological target: SYK (human) (UniProt P43405); assay: SelectScreen, TR FRET; conditions: compound 10.0 µM
[42] = biological target: TTK (human) (UniProt P33981); assay: SelectScreen, TR FRET

RAF1 (human), sequence (P04049 whole entry, looked up): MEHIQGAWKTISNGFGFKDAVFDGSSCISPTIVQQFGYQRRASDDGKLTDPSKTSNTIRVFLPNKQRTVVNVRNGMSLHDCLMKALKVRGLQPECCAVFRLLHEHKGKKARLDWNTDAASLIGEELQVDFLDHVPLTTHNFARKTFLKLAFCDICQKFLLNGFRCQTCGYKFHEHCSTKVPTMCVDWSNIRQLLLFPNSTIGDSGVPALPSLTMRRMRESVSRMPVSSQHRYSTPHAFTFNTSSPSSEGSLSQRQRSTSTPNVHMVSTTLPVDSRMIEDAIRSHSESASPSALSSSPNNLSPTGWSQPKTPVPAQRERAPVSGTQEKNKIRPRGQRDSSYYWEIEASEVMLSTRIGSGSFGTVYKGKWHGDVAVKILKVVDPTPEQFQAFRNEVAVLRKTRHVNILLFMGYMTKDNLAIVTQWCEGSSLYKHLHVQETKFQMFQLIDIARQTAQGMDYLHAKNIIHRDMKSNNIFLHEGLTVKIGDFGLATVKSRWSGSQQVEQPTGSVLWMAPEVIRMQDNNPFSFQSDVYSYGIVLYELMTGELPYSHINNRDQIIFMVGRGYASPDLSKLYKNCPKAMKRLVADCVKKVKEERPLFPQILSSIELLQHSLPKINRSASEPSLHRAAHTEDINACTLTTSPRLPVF
PRKCB1 (human), sequence (P05771 whole entry, looked up): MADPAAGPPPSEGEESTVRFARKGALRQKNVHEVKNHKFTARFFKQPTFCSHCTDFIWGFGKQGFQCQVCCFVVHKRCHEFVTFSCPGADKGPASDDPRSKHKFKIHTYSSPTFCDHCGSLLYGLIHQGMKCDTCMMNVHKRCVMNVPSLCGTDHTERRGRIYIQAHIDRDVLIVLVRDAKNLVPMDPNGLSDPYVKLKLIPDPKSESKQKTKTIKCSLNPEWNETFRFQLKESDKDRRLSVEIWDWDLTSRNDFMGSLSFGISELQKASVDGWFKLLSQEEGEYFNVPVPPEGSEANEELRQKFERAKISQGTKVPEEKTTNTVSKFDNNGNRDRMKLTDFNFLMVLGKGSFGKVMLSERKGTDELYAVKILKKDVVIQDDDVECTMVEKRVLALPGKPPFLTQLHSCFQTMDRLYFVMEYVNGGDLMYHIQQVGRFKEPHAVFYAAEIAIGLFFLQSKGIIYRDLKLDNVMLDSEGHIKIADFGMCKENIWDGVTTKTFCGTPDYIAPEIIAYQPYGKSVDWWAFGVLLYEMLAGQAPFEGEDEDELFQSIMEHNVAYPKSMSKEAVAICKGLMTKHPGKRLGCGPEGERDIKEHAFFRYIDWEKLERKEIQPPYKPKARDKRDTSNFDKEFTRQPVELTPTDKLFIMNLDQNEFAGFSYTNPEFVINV
STK16 (human), sequence (O75716 whole entry, looked up): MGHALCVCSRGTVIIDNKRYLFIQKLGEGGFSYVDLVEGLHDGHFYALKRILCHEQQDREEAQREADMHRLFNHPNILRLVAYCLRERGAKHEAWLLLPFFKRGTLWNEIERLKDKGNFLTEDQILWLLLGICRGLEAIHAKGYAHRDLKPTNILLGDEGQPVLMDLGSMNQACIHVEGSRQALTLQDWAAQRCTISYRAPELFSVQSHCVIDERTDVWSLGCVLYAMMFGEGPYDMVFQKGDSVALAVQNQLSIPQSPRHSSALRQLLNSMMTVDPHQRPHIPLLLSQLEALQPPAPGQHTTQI
JAK1 JH1 JH2 (human), sequence (P23458 whole entry, looked up): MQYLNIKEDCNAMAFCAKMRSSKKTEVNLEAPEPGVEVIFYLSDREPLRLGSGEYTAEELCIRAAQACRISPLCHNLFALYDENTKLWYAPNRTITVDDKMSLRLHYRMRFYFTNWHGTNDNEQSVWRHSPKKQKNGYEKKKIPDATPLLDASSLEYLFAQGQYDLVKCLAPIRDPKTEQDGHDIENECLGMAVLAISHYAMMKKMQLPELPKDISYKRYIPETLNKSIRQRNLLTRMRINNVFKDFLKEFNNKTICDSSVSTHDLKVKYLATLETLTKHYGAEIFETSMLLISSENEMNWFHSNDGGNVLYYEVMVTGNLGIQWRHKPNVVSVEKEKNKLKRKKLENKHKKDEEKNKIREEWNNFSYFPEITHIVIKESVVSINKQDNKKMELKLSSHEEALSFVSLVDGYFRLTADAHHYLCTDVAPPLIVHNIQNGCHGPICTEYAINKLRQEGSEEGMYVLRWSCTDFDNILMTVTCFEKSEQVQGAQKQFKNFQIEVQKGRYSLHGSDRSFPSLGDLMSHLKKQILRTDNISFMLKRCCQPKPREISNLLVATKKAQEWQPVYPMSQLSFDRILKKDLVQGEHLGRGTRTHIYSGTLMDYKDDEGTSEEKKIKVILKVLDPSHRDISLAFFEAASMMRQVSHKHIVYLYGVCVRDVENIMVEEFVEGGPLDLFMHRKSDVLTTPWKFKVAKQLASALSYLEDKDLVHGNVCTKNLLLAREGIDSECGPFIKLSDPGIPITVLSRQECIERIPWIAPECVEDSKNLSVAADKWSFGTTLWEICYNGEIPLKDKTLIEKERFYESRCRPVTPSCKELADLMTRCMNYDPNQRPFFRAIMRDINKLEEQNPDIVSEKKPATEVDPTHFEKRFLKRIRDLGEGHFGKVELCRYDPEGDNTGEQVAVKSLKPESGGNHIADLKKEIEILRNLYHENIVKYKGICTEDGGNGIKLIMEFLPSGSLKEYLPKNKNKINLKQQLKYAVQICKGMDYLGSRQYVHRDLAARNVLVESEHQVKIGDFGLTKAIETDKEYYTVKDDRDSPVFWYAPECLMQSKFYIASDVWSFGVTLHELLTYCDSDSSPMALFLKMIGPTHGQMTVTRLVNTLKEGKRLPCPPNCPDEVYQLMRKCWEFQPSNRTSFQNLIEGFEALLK
AKT1 (human), sequence (P31749 whole entry, looked up): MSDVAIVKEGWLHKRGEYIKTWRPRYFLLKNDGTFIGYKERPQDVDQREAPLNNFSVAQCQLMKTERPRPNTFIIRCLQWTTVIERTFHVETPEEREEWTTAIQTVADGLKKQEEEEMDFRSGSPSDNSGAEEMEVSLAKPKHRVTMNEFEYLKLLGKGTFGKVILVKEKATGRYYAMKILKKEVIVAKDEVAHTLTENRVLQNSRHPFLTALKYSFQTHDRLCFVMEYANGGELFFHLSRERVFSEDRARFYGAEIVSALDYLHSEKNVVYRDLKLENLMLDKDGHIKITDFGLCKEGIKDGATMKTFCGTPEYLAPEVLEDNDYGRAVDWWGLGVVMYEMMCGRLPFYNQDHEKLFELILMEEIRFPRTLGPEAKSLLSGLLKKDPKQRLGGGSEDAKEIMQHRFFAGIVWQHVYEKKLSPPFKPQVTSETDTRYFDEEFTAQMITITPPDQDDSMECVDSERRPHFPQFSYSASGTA
ROCK2 (human), sequence (O75116 whole entry, looked up): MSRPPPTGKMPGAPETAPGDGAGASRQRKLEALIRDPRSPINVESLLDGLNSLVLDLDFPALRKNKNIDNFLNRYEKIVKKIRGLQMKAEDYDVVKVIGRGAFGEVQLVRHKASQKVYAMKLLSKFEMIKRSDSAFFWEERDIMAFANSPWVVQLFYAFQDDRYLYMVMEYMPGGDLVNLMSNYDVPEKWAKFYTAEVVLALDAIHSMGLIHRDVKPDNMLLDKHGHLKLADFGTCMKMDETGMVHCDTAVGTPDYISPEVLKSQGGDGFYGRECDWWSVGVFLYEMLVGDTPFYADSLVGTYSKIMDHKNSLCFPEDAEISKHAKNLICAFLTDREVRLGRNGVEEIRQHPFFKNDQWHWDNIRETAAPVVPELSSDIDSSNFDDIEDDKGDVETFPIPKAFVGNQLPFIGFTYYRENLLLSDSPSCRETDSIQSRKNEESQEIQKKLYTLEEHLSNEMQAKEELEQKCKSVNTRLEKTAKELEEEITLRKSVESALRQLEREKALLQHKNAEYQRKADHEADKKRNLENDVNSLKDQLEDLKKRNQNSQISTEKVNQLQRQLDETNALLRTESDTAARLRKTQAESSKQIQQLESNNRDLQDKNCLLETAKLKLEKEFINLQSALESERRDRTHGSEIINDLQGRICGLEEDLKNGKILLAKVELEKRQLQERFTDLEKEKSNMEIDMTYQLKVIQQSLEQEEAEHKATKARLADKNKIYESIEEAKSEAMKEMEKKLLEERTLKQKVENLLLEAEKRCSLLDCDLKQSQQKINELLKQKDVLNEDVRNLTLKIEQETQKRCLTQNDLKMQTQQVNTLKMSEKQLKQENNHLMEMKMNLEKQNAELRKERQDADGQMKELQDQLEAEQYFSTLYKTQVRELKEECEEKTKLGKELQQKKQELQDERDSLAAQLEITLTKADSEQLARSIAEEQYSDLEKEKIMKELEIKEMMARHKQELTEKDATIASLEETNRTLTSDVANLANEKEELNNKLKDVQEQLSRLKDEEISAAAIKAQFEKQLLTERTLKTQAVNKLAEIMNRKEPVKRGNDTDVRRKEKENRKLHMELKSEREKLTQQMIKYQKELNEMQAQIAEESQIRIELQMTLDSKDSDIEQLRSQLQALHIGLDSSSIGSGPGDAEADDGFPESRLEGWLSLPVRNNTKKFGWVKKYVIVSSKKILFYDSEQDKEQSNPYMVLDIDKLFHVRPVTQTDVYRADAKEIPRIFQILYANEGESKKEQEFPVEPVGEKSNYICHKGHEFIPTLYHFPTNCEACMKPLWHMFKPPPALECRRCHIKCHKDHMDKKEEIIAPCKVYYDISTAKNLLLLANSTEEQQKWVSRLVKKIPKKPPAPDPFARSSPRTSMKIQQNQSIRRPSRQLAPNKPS
CDK2 CCNA2 (human), sequence (P20248 whole entry, looked up, other chains not shown): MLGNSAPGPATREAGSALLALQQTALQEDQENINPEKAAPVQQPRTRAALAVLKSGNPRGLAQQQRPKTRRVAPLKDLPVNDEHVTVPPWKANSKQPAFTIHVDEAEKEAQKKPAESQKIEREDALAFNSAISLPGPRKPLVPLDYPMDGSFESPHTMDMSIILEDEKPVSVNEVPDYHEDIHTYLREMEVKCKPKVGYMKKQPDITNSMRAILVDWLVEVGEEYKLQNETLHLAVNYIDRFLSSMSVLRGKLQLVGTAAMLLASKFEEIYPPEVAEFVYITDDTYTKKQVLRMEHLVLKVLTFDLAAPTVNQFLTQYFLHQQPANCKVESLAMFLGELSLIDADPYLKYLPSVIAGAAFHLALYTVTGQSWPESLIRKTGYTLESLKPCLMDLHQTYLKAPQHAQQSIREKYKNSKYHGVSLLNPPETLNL

IC50 [1]: 48 nM
IC50 [2]: 27 nM
inhibition [3]: 29.9%
inhibition ([4]; compound 10.0 µM): -1.71%
inhibition [5]: 66.7%
inhibition ([6]; compound 10.0 µM): 29.7%
inhibition [7]: 11.7%
inhibition ([8]; compound 10.0 µM): 0.295%
inhibition ([9]; compound 10.0 µM): 5.49%
inhibition [10]: 30.7%
inhibition [11]: 6.88%
inhibition [12]: 39.5%
inhibition [13]: 23.7%
inhibition ([14]; compound 10.0 µM): 6.95%
inhibition ([15]; compound 10.0 µM): 44.5%
inhibition ([16]; compound 10.0 µM): 0.682%
inhibition ([17]; compound 10.0 µM): 0.146%
inhibition ([18]; compound 10.0 µM): 9.89%
inhibition ([19]; compound 10.0 µM): 4.09%
inhibition ([20]; compound 10.0 µM): 18.4%
inhibition [21]: 81.3%
inhibition ([22]; compound 10.0 µM): -5.32%
inhibition ([23]; compound 10.0 µM): -1.85%
inhibition ([24]; compound 10.0 µM): -17.1%
inhibition [25]: 40.2%
inhibition [26]: 19.3%
inhibition ([27]; compound 10.0 µM): 4.67%
inhibition ([28]; compound 10.0 µM): 13.5%
inhibition ([29]; compound 10.0 µM): 8.21%
inhibition [30]: 53.7%
inhibition ([31]; compound 10.0 µM): 5.89%
inhibition [32]: -2.65%
inhibition ([33]; compound 10.0 µM): -1.79%
inhibition ([34]; compound 10.0 µM): 15.9%
inhibition ([35]; compound 10.0 µM): 5.94%
inhibition [36]: 11.8%
inhibition [37]: 55.8%
inhibition ([38]; compound 10.0 µM): 16.4%
inhibition ([39]; compound 10.0 µM): -24.1%
inhibition ([40]; compound 10.0 µM): 18.1%
inhibition [41]: 71%
inhibition ([42]; compound 10.0 µM): 11.2%
Structure (SMILES): C[C@@H](Nc1c(C#N)cnc2cc(-c3ccc(N4CCOC4=O)cc3)ccc12)C1CC1

inhibition ([4]; compound 1.0 µM): 9.66%
inhibition ([8]; compound 1.0 µM): 11.7%
inhibition ([15]; compound 1.0 µM): 15.5%
inhibition ([16]; compound 1.0 µM): 27.6%
inhibition ([18]; compound 1.0 µM): 29.4%
inhibition ([19]; compound 1.0 µM): 16.5%
inhibition ([20]; compound 1.0 µM): 25.5%
inhibition ([22]; compound 1.0 µM): 7.1%
inhibition ([23]; compound 1.0 µM): 9.79%
inhibition ([24]; compound 1.0 µM): -11.1%
inhibition ([27]; compound 1.0 µM): 33.4%
inhibition ([28]; compound 1.0 µM): -1.66%
inhibition ([31]; compound 1.0 µM): 13.5%
inhibition ([33]; compound 1.0 µM): 19.4%
inhibition ([34]; compound 1.0 µM): 33.5%
inhibition ([35]; compound 1.0 µM): 3.26%
inhibition ([38]; compound 1.0 µM): 11.8%
inhibition ([39]; compound 1.0 µM): 3.38%
inhibition ([42]; compound 1.0 µM): -3.76%
Structure (SMILES): CC(C)Nc1c(C#N)cnc2cc(-c3ccc(S(C)(=O)=O)cc3)ccc12

IC50 [1]: 70 nM
IC50 [2]: 50 nM
inhibition ([4]; compound 1.0 µM): -0.488%
inhibition ([6]; compound 1.0 µM): 27.5%
inhibition ([8]; compound 1.0 µM): 5.33%
inhibition ([9]; compound 1.0 µM): 12.4%
inhibition ([14]; compound 1.0 µM): 4.52%
inhibition ([17]; compound 1.0 µM): 1.29%
inhibition ([19]; compound 1.0 µM): 2.9%
inhibition ([23]; compound 1.0 µM): -2.05%
inhibition ([24]; compound 1.0 µM): 4.47%
inhibition ([29]; compound 1.0 µM): 23.6%
inhibition ([31]; compound 1.0 µM): 11.5%
inhibition ([33]; compound 1.0 µM): -7.3%
inhibition ([34]; compound 1.0 µM): 12.2%
inhibition ([35]; compound 1.0 µM): 12.4%
inhibition ([38]; compound 1.0 µM): 14.2%
inhibition ([39]; compound 1.0 µM): 10.1%
inhibition ([40]; compound 1.0 µM): 15.4%
inhibition ([42]; compound 1.0 µM): -8.51%
Structure (SMILES): CC(C)Nc1c(C#N)cnc2cc(-c3cnn(C)c3)ccc12
